# Literature values as cited in patent US20250325558A1, “MODULATION OF BACE1 AS A THERAPY FOR SPINOCEREBELLAR ATAXIA” (The General Hospital Corporation, priority 2022, published 2025).
# Details: preclinical and clinical studies
smiles,measurement,value
"CN1C(=N)N[C@](C)(c2cc(NC(=O)c3ccc(F)cn3)ccc2F)CS1(=O)=O [MK-8931, verubecestat]",serious adverse side effects such as liver toxicity,did not produce any serious adverse side effects such as liver toxicity
